Results published in patent US10398142B2, “Polycationic amphiphiles as antimicrobial agents” (priority 2013, dated 2019).
Where “and” joins values, the source holds several entries; their conditions need not be identical. Equal values may be shown once. Entries after “also recorded” stand apart in the source; their conditions may differ. Read-outs that look alike come from different tables or passages of the source. Marks after values point to notes of the source that are not given here.

Experiments:
[1] = test system: S. aureus (MSSA, SH1000) biofilms; assay: Minimum biofilm eradication concentration (MBEC), regrowth assay; assay type: cell-based, Staphylococcus aureus; conditions: for MBEC S. aureus: Table 2, pre-established biofilm, ± values varied between 50 and 100 μM for the six trials; for MBEC MSSA: Table 5, SH1000
Description: (§1) A regrowth assay was used to establish the MBEC of a compound to evaluate the antibiofilm activity. See also H. Ceri, M. Olson, D. Morck, D. Storey, R. Read, A. Buret, B. Olson, Methods Enzymol. 2001, 337, 377.
(§2) Encouraged by the potency of the QACs against planktonic bacterial cells, the inventors then evaluated the efficacy of compound (12,2,12) against Staphylococcus aureus and Enterococcus faecalis biofilms. […] To both accurately evaluate the antibiofilm activity, a regrowth assay was utilized to establish the minimum biofilm eradication concentration (MBEC) of each compound.
(§3) Different biological assays were performed. For all biological assays, laboratory strains of methicillin-susceptible Staphylococcus aureus MSSA (SH1000), Enterococcus faecalis (OG1RF), Escherichia coli (MC4100), Pseudomonas aeruginosa (PAO1), community-acquired methicillin-resistant Staphylococcus aureus CA-MRSA (USA300-0114), and hospital-acquired methicillin-resistant Staphylococcus aureus HA-MRSA (ATCC 33591) were grown at 37° C. overnight from freezer stocks in 10 mL of the media indicated for each assay. All cultures, with the exception of E. faecalis, were grown with shaking at 250 rpm.
(§4) Minimum biofilm eradication concentration (MBEC) was also measured. To each well of a flat-bottomed 96-well plate (Corning 3370), 8 μL of overnight bacterial culture was brought to a volume of 200 μL with fresh media (BHI for S. aureus and MRSA, Todd Hewitt (TH) for E. faecalis). Plates were incubated statically for 24 hours at 37° C. to establish biofilms. After 24 hours, the wells were carefully emptied by inverting the plate and gently shaking. A pre-mixed solution of media and aqueous compound stock solution was added to each well and plates were incubated at 37° C. 16 hours after pre-established biofilms were treated with compound, the media from each well was removed, biofilms were washed three times with 200 μL PBS to remove planktonic cells, and biofilms were incubated overnight at 37° C. in 200 μL of fresh media to allow any viable cells to continue growing. The wells were then vigorously pipetted to resuspend the biofilm cells and the OD at 595 nm was measured using a plate reader (POLARstar Omega, BMG Labtech). Biofilms reaching a final OD of less than 0.1 were considered eradicated and the lowest concentration of antibiotic corresponded to the MBEC. Four replicates were completed for each concentration of compound as well as positive and negative controls.

[2] = test system: Staphylococcus aureus MSSA (SH1000); assay: Minimum inhibitory concentration (MIC), broth microdilution; assay type: cell-based
Experimental: (§5) The term “minimum inhibitory concentration (MIC)” means the lowest concentration of an antimicrobial agent that will inhibit the visible growth of a microorganism after overnight incubation. MIC values against bacteria, for example, the Gram-positive Staphylococcus aureus and Enterococcus faecalis and the Gram-negative Escherichia coli and Pseudomonas aeruginosa were determined by standard methods.
(§6) With nearly three-dozen amphiphiles varying in structure and cationic nature synthesized, minimum inhibitory concentration (MIC) values against the Gram-positive Staphylococcus aureus and Enterococcus faecalis and the Gram-negative Escherichia coli and Pseudomonas aeruginosa were determined by standard methods. […] The commercially available antibacterial agent benzalkonium chloride (benzyldimethyldodecylammonium chloride, Bn,12) was tested for comparison. The broth microdilution for determining MIC values was performed as previously reported.
(§7) Different biological assays were performed. […] All cultures, with the exception of E. faecalis, were grown with shaking at 250 rpm.
(§8) Minimum inhibitory concentration (MIC) values against bacteria were measured using standard method. Compounds were serially diluted two-fold from an aqueous stock solution to yield twelve test concentrations. Overnight S. aureus, E. faecalis, E. coli, P. aeruginosa, CA-MRSA, and HA-MRSA cultures diluted to ca. 10^6 cfu/mL in Mueller-Hinton media and 100 μL were inoculated into each well of a U-bottom 96-well plate (BD Biosciences, BD351177) containing 100 μL of compound solution. Plates were incubated statically at 37° C. for 72 hours upon which time wells were evaluated visually for bacterial growth. The MIC was determined as the lowest concentration of compound resulting in no bacterial growth visible to the naked eye, based on the majority of three independent experiments. Positive and negative aqueous and media controls were conducted for each trial.

[3] = test system: Pseudomonas aeruginosa (PAO1); assay: as above; assay type: cell-based; conditions: for MIC: read-out: MIC P. aeruginosa
Experimental: as §5, §6, §7, §8

[4] = test system: Enterococcus faecalis (OG1RF); assay: as above; assay type: cell-based; conditions: for MIC: read-out: MIC E. faecalis
Experimental: as §5, §6, §7, §8

[5] = test system: Escherichia coli (MC4100); assay: as above; assay type: cell-based; conditions: for MIC: read-out: MIC E. coli
Experimental: as §5, §6, §7, §8

[6] = test system: red blood cells (defibrinated sheep blood); assay: Hemolysis assay (Lysis20); conditions: for Lysis20: Table 4, concentration at which less than 20% of red blood cells are lysed
Experimental: Hemolysis assays (Lysis20) were performed according to the procedure detailed in Peng, L., DeSousa, J., Su, Z., Novak, B. M., Nevzorov, A. A., Garland, E. R., and Melander, C., Inhibition of Acinetobacter baumannii biofilm formation on a methacrylate polymer containing a 2-aminoimidazole subunit, Chem. Comm. 2011, 47, 4896-4898. Defibrinated sheep blood was purchased from Hemostat Labs (DSB 100). Compounds representative of each class were serially diluted in sterile PBS from aqueous stock solutions and incubated with resuspended blood cells. The OD of the final suspensions were measured directly using plate reader. TritonX (1% by volume) served as a positive control (100% lysis marker) and sterile PBS served as a negative control (0% lysis marker).
Lysis20 indicates the concentration of compound (in μM) at which less than 20% of red blood cells are lysed.

E. faecalis biofilms = assay: Minimum biofilm eradication concentration (MBEC), regrowth assay; assay type: cell-based, Enterococcus faecalis
Description: as §1, §2, §3, §4

[7] = test system: CA-MRSA (USA300-0114) biofilms; assay: as above; assay type: cell-based, Staphylococcus aureus; conditions: Table 5; for MBEC CA-MRSA: USA300-0114
Experimental: as §1, §3, §4

CA-MRSA (USA300-0114) = assay: Minimum inhibitory concentration (MIC), broth microdilution; assay type: cell-based, Staphylococcus aureus; conditions: for MIC: read-out: MIC CA-MRSA; for potency against CA-MRSA strain possessing qacA/R (in words): compared with MSSA
Experimental: as §7, §8

HA-MRSA (ATCC 33591) = assay: as above; assay type: cell-based, Staphylococcus aureus; conditions: for MIC: read-out: MIC HA-MRSA
Experimental: as §7, §8

[8] = Table 1, read-out: MIC S. aureus
[9] = Table 3, read-out: MIC S. aureus
[10] = Table 4, SH1000, read-out: MIC MSSA
[11] = Table 2, pre-established biofilm, ± values varied between 50 and 100 μM for the six trials

Compound | MBEC S. aureus [1] | MBEC MSSA [1] [µM] | MIC [2, 8] [µM] | MIC [2, 9] [µM] | MIC [2, 10] [µM] | MIC ([3]; Table 1) [µM] | MIC ([3]; Table 3) [µM] | MIC ([4]; Table 1) [µM] | MIC ([4]; Table 3) [µM] | MIC ([5]; Table 1) [µM] | MIC ([5]; Table 3) [µM] | Lysis20 [6] [µM] | MBEC E. faecalis (E. faecalis biofilms; [11]) | MBEC E. faecalis (E. faecalis biofilms; Table 5) [µM] | MBEC CA-MRSA [7] [µM] | MIC (CA-MRSA (USA300-0114); Table 4, USA300-0114) [µM] | MIC (HA-MRSA (ATCC 33591); Table 4, ATCC 33591) [µM] | also measured
CCCCCCCCCCCC[N+](C)(C)CCN(C)CC[N+](C)(C)CCCCCCCCCCCC.[Br-].[Br-] [12,2,0,2,12] | 75 ± 25^a μM | 75 ± 25 | 1 | 1 | 1 | 4 | 4 | 2 | 1 | 1 | 2 | 8 | 100 µM | 100 | 100 | 1 | 0.5 | 
CCCCCCCCCCCC[N+](C)(C)CC[N+](C)(C)CC[N+](C)(C)CCCCCCCCCCCC.[Br-].[Br-].[I-] [12,2,1,2,12] | 50 µM | 200 | ≤0.25 |  | 1 | 1 |  | ≤0.25 |  | 0.5 |  | 16 | 25 µM | >200 | ≥200 | 1 | 1 | MIC S. aureus ([2]; Table 3): ≤0.25-4^a μM; MIC P. aeruginosa ([3]; Table 3): 1-8^a μM; MIC E. faecalis ([4]; Table 3): ≤0.25-4^a μM; MIC E. coli ([5]; Table 3): 0.5-4^a μM
C=CC[N+](C)(CC[N+](C)(C)CCCCCCCCCCCC)CC[N+](C)(C)CCCCCCCCCCCC.[Br-].[Br-].[Br-] [12,2,3A,2,12] |  | 50 |  | 2 | 2 |  | 4 |  | 2 |  | 2 | 2 |  | 75 ± 25 | 100 | 1 | 1 | 
CCCCCCCCCCCC[N+](C)(C)CC[N+](C)(C)CCCCCCCCCCCC [12,2,12] | 75 μM and 75 ± 25^a μM | 75 ± 25 | 1 |  | 1 | 4 |  | 1 |  | 2 |  | 8 | 75 μM and 75 ± 25^a μM | 50 | 200 | 0.5 | 0.5 | 
C=CC[N+](C)(CCC[N+](C)(C)CCCCCCCCCCCC)CCC[N+](C)(C)CCCCCCCCCCCC.[Br-].[Br-].[Br-] [12,3,3A,3,12] |  | 50 |  | 1 | 1 |  | 4 |  | 2 |  | 2 | 8 |  | 75 ± 25 | 100 | 1 | 1 | 
CCCCCCCCCCCC[n+]1ccc(-c2cc[n+](CCCCCCCCCCCC)cc2)cc1.[Br-].[Br-] [PQ-12,12] |  | 200 |  |  | 1 |  |  |  |  |  |  | 8 |  | 200 | 100 | 1 | 0.5 | 
CCCCCCCCCCCC[n+]1ccc(-c2cc[n+](Cc3ccccc3)cc2)cc1 [PQ-12,Bn] |  | 200 |  |  |  |  |  |  |  |  |  | 125 |  | 200 | 200 |  |  | MIC ([2]; Staphylococcus aureus, MSSA, read-out: MIC MSSA): 4 µM; prokaryotic selectivity (lytic profile vs MIC, in words) ([6]; among the multiQACs evaluated): highest prokaryotic selectivity; MIC (CA-MRSA (USA300-0114); Staphylococcus aureus): 32 µM; potency against CA-MRSA strain possessing qacA/R (in words) (CA-MRSA (USA300-0114)): elevated MICs; also recorded: decreased potency; MIC (HA-MRSA (ATCC 33591); Staphylococcus aureus): 16 µM; potency against HA-MRSA (in words) (HA-MRSA (ATCC 33591); compared with MSSA): elevated MICs
CCCCCCCCCCCCCCCC[n+]1ccccc1.[Cl-] [Pyr,16, reference compound] |  | 50 |  |  | 0.5 |  |  |  |  |  |  | 8 |  | 50 | 200 | 16 | 1 | decrease in efficacy against MRSA biofilms compared to MSSA ([7]; MBEC): four-fold decrease in efficacy; potency against CA-MRSA strain possessing qacA/R (in words) (CA-MRSA (USA300-0114)): decreased potency
